# Article PMC5750217 (Nature Communications, 2018)
# Biological target: T1, A2-S481T/C482T (mutant ASCT2) (Homo sapiens, UniProt Q15758, C467T/S466T)
# T1 construct: expressed in transfected cells; host or cells: Xenopus laevis oocytes (cRNA injection)
# T1 sequence (Q15758 1-541 S466T/C467T): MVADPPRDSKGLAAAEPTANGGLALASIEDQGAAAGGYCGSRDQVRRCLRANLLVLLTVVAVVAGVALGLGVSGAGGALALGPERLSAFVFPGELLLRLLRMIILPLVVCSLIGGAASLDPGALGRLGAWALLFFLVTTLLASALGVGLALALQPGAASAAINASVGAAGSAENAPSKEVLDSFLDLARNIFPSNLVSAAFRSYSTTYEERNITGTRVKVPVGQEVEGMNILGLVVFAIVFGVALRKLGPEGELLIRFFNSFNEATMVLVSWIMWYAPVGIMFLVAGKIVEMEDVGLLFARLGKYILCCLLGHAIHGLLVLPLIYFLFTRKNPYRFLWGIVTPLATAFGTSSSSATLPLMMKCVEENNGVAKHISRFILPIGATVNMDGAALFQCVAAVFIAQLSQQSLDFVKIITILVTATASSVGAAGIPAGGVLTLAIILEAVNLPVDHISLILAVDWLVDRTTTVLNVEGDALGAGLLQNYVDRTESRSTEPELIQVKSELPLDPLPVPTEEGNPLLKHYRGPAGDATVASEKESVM
# Assay: Radiolabelled uptake in oocytes expressing A2-S481T/C482T
# Assay type: cell-based
# Details: 10 µM L-[3H]substrate, 10 min, room temperature
smiles,measurement,value
N[C@@H](CO)C(=O)O [L-serine],Radiolabelled substrate uptake into oocytes (in words),displays uptake
